Measured values reported in the supplement of paper PMC10307832.

What was measured:
Experiment in all cases: relative viability (nuclei count vs DMSO), 5 days (fraction); higher = more cells survive
Cediranib + Dasatinib = compound: COc1cc2c(Oc3ccc4[nH]c(C)cc4c3F)ncnc2cc1OCCCN1CCCC1 [Cediranib] + Cc1nc(Nc2ncc(C(=O)Nc3c(C)cccc3Cl)s2)cc(N2CCN(CCO)CC2)n1 [Dasatinib] (partner 0.075 µM)
How it was run: (§1)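 Nuclei were stained with Hoechst during a one-step fixation (final 0.05% Triton X-100, 1% formaldehyde, 1 ug/ml Hoechst) carried out 5 days after dosing, then counted on 4× images. The cells, lung cancer lines in 1536-well plates, had been dosed by pin tool the day after seeding with one drug alone or a fixed anchor-drug dose plus five library-drug doses (not always all listed) in √10 steps. Relative viability is the nuclei count in treated wells divided by that in vehicle wells, and each value is the median of duplicate plates.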

Cediranib + Vorinostat = compound: COc1cc2c(Oc3ccc4[nH]c(C)cc4c3F)ncnc2cc1OCCCN1CCCC1 [Cediranib] + O=C(CCCCCCC(=O)Nc1ccccc1)NO [Vorinostat] (partner 1 µM)
How it was run: as §1

Decitabine + Luminespib = compound: Nc1ncn([C@H]2C[C@H](O)[C@@H](CO)O2)c(=O)n1 [Decitabine] + CCNC(=O)c1noc(-c2cc(C(C)C)c(O)cc2O)c1-c1ccc(CN2CCOCC2)cc1 [Luminespib] (partner 0.01 µM)
How it was run: as §1

Decitabine + Pemetrexed = compound: Nc1ncn([C@H]2C[C@H](O)[C@@H](CO)O2)c(=O)n1 [Decitabine] + Nc1nc2[nH]cc(CCc3ccc(C(=O)N[C@@H](CCC(=O)O)C(=O)O)cc3)c2c(=O)[nH]1 [Pemetrexed] (partner 0.2 µM)
How it was run: as §1

Cell Line | relative viability (Cediranib + Dasatinib; first compound 0.04 µM) | relative viability (Cediranib + Dasatinib; first compound 0.1265 µM) | relative viability (Cediranib + Dasatinib; first compound 0.4 µM) | relative viability (Cediranib + Dasatinib; first compound 1.265 µM) | relative viability (Cediranib + Dasatinib; first compound 4 µM) | relative viability (Cediranib + Vorinostat; first compound 0.04 µM) | relative viability (Cediranib + Vorinostat; first compound 0.1265 µM) | relative viability (Cediranib + Vorinostat; first compound 0.4 µM) | relative viability (Cediranib + Vorinostat; first compound 1.265 µM) | relative viability (Cediranib + Vorinostat; first compound 4 µM) | relative viability (Decitabine + Luminespib; first compound 0.04 µM) | relative viability (Decitabine + Luminespib; first compound 0.1265 µM) | relative viability (Decitabine + Luminespib; first compound 1.265 µM) | relative viability (Decitabine + Luminespib; first compound 4 µM) | relative viability (Decitabine + Pemetrexed; first compound 0.04 µM) | relative viability (Decitabine + Pemetrexed; first compound 0.1265 µM) | relative viability (Decitabine + Pemetrexed; first compound 0.4 µM) | relative viability (Decitabine + Pemetrexed; first compound 1.265 µM) | relative viability (Decitabine + Pemetrexed; first compound 4 µM) | relative viability (Decitabine + Luminespib; first compound 0.4 µM)
RERF-LC-KJ | 0.823 | 0.695 | 0.842 | 0.834 | 0.838 | 0.805 | 0.226 | 0.62 | 0.674 | 0.761 | 1.18 | 1.01 | 0.582 | 0.685 | 0.441 | 0.403 | 0.215 | 0.401 | 0.369 | 
SK-LU-1 | 0.184 | 0.244 | 0.175 | 0.175 | 0.202 | 0.881 | 0.777 | 0.685 | 0.775 | 0.773 | 0.18 | 0.212 | 0.204 | 0.208 | 0.826 | 0.754 | 0.406 | 0.513 | 0.49 | 0.196
SK-MES-1 | 0.37 | 0.47 | 0.413 | 0.427 | 0.252 | 1.17 | 1.04 | 0.966 | 1.05 | 1.21 | 0.566 | 0.575 | 0.288 | 0.232 | 0.828 | 0.682 | 0.458 | 0.343 | 0.338 | 0.331
SW 900 | 0.629 | 0.669 | 0.594 | 0.654 | 0.524 | 0.425 | 0.413 | 0.438 | 0.478 | 0.495 | 0.212 | 0.164 | 0.179 | 0.197 | 0.415 | 0.411 | 0.345 | 0.277 | 0.303 | 0.169
SW 1573 | 0.646 | 0.661 | 0.43 | 0.389 | 0.524 | 1.03 | 0.532 | 0.991 | 0.582 | 0.806 | 0.135 | 0.172 | 0.143 | 0.151 | 0.812 | 0.844 | 0.87 | 0.494 | 0.323 | 0.201
